One assay has as its target Human plasma kallikrein (Homo sapiens (Human), UniProt P03952). Kind of assay: Kallikrein Assay (fluorogenic substrate Acetyl-K-P-R-AFC). In kind it is biochemical. The conditions noted are these: Plasma Kallikrein (PKal). In a few lines:
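Ki is derived from IC50 with the Cheng-Prusoff equation, and IC50 from the inflection point of a four-parameter logistic curve. The rate of AFC release is read with 0.5 nM purified enzyme and […] substrate at room temperature or 37 °C.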

Another assay has as its target human Factor XIa (Homo sapiens (Human), UniProt P03951). Kind of assay: Factor XIa Assay (fluorogenic substrate GPR-AFC). Conditions: Factor XIa (FXIa). In kind it is biochemical.

A value given as a limit tells only on which side of the number the result lay.

Sequence of Human plasma kallikrein (P03952 391-638): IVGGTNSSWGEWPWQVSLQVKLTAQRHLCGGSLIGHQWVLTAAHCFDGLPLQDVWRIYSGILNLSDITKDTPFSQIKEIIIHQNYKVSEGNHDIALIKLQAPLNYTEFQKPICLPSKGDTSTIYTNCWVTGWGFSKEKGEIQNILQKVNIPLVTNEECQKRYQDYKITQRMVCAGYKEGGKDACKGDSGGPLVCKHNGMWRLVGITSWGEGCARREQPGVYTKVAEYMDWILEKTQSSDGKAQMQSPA
Sequence of Human plasma kallikrein (P03952 20-390 partner): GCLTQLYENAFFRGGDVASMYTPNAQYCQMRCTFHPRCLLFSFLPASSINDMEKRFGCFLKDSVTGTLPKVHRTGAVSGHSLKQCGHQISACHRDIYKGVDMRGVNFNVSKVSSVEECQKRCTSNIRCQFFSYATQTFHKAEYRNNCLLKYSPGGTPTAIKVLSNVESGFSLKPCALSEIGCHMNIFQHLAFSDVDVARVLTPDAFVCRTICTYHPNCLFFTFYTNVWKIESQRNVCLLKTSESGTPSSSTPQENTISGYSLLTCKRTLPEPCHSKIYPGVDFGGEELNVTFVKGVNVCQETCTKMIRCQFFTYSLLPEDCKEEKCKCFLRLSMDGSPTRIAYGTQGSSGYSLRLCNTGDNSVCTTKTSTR
Sequence of human Factor XIa (P03951 388-625 limits assumed): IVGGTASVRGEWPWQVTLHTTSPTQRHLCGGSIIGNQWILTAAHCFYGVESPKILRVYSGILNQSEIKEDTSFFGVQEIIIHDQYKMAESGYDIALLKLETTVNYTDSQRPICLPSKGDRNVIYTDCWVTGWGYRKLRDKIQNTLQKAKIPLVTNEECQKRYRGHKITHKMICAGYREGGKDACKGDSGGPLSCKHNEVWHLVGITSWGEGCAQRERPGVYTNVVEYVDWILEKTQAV
Sequence of human Factor XIa (P03951 19-387 partner limits assumed): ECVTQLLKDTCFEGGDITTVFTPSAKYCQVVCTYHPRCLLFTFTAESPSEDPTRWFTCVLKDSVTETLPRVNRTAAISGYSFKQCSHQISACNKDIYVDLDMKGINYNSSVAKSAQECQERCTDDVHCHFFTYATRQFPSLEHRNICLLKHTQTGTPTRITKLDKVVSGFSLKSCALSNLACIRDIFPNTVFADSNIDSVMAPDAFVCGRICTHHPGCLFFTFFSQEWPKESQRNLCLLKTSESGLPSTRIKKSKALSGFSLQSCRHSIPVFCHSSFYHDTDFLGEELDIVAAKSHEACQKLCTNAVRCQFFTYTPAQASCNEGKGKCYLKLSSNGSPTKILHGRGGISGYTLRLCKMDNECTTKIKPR

What is called IC50 is the concentration that inhibits the measured activity by half. Take `Cc1ncc(-c2c(C(F)F)ccc(Cl)c2F)nc1C(=O)Nc1cn(Cc2cnc(N3C[C@H]4C[C@H]4C3=O)c(C)n2)nn1` [Example 185, 6-(3-Chloro-6-(difluoromethyl)-2-fluorophenyl)-3-methyl-N-(1-((6-methyl-5-((1R,5S)-2-oxo-3-azabicyclo[3.1.0]hexan-3-yl)pyrazin-2-yl)methyl)-1H-1,2,3-triazol-4-yl)pyrazine-2-carboxamide]: the IC50 against Human plasma kallikrein was found to be 0.0024 µM; on human Factor XIa it was 3.18 µM.

With `Cc1nc(C(C)n2cc(NC(=O)c3cncc(-c4c(C(F)F)ccc(Cl)c4F)n3)cn2)ncc1N1C[C@H]2C[C@H]2C1=O` (single isomer, unassigned) [Example 4, 6-(3-Chloro-6-(difluoromethyl)-2-fluorophenyl)-N-(1-((R or S)-1-(4-methyl-5-((1R,5S)-2-oxo-3-azabicyclo[3.1.0]hexan-3-yl)pyrimidin-2-yl)ethyl)-1H-pyrazol-4-yl)pyrazine-2-carboxamide], the IC50 against Human plasma kallikrein is 0.0168 µM; on human Factor XIa it was > 10 µM.

Take `Cc1nc(N2C[C@H]3C[C@H]3C2=O)ncc1[C@@H](CO)n1cc(NC(=O)c2cncc(-c3c(C(F)F)ccc(Cl)c3F)n2)cn1` [Example 159, 6-(3-Chloro-6-(difluoromethyl)-2-fluorophenyl)-N-(1-((S)-2-hydroxy-1-(4-methyl-2-((1R,5S)-2-oxo-3-azabicyclo[3.1.0]hexan-3-yl)pyrimidin-5-yl)ethyl)-177-pyrazol-4-yl)pyrazine-2-carboxamide]: the IC50 on Human plasma kallikrein turned out to be 0.0112 µM; against human Factor XIa, 6.9 µM.

On to `Cc1ncc(-c2c(C(F)F)ccc(Cl)c2F)nc1C(=O)Nc1cnn(C(C)c2cnc(N3C[C@H]4C[C@H]4C3=O)c3c2OC(F)(F)O3)c1` (single isomer, unassigned) [Example 246, 6-(3-Chloro-6-(difluoromethyl)-2-fluorophenyl)-N-(1-((R or S)-1-(2,2-difluoro-4-((1R,5S)-2-oxo-3-azabicyclo[3.1.0]hexan-3-yl)-[1,3]dioxolo[4,5-c]pyridin-7-yl)ethyl)-1H-pyrazol-4-yl)-3-methylpyrazine-2-carboxamide], for which the IC50 was 0.006 µM on Human plasma kallikrein and 6.56 µM on human Factor XIa.

Take `CC(c1cnc(N2C[C@H]3C[C@H]3C2=O)nc1CO)n1cc(NC(=O)c2cncc(-c3c(C(F)F)ccc(Cl)c3F)n2)cn1` (stereo in doubt) [Example 169, 6-(3-Chloro-6-(difluoromethyl)-2-fluorophenyl)-N-(1-(1-(4-(hydroxymethyl)-2-(2-oxo-3-azabicyclo[3.1.0]hexan-3-yl)pyrimidin-5-yl)ethyl)-1H-pyrazol-4-yl)pyrazine-2-carboxamide]: the IC50 amounted to 0.0152 µM against Human plasma kallikrein and 2.2 µM against human Factor XIa.

As for `Cc1ncc(-c2c(C(F)F)ccc(Cl)c2F)nc1C(=O)Nc1cnn(C(C)c2ncc(N3C[C@H]4C[C@H]4C3=O)cc2F)c1` (single isomer, unassigned) [Example 137, 6-(3-Chloro-6-(difluoromethyl)-2-fluorophenyl)-N-(1-((S or R)-1-(3-fluoro-5-((1R,5S)-2-oxo-3-azabicyclo[3.1.0]hexan-3-yl)pyridin-2-yl)ethyl)-1H-pyrazol-4-yl)-3-methylpyrazine-2-carboxamide], the IC50 was 0.0077 µM against Human plasma kallikrein and > 10 µM against human Factor XIa.

In the case of `C[C@@H](c1cnc(N2C[C@H]3C[C@H]3C2=O)nc1)n1cc(NC(=O)c2cncc(-c3c(C(F)F)ccc(Cl)c3F)n2)cn1` [Example 172, 6-(3-Chloro-6-(difluoromethyl)-2-fluorophenyl)-N-(1-((S)-1-(2-((1R,5S)-2-oxo-3-azabicyclo[3.1.0]hexan-3-yl)pyrimidin-5-yl)ethyl)-1H-pyrazol-4-yl)pyrazine-2-carboxamide], the values for the IC50 against Human plasma kallikrein and at human Factor XIa were 0.0064 µM and 6.73 µM, respectively.

These data come from US20230286958A1, “PLASMA KALLIKREIN INHIBITORS” (Merck Sharp & Dohme LLC, priority 2020, published 2023).
